Earlier results as cited in patent US20030077758A1, “Myc repressor modulation to treat aging-related disorders” (priority 2000, published 2003).

Biological target: AP-2 (Homo sapiens, UniProt P05549)
Settings: in vitro; apparently by oxidizing cysteine residues in the AP-2 DNA binding domain

AP-2, sequence (P05549 whole entry, species assumed, the tested form may be a part): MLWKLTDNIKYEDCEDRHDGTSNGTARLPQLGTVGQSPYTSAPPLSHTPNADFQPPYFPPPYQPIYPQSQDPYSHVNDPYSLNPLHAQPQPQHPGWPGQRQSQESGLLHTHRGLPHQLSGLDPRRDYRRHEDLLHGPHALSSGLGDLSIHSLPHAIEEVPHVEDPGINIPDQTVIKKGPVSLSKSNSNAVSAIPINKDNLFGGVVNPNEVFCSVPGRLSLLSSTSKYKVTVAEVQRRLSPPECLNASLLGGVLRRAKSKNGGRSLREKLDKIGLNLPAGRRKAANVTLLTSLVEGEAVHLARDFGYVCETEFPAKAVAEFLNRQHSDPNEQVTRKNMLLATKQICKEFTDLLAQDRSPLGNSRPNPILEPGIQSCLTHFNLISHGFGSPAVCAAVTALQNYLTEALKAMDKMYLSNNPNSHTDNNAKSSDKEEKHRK

| AP-2 DNA binding activity | SMILES |
| --- | --- |
| inhibited | CN(C)C(=O)/N=N/C(=O)N(C)C [diamide] |
| inhibited | OO [hydrogen peroxide] |
